From US20060241143A1, “Combination of paroxetine and 2-methoxy-5-(5-trifluoromethyl-tetrazol-1-yl-benzyl)-(2s-phenyl-piperidin-3s-yl)-amine for treatment of depression and/or anxiety” (priority 2003, published 2006)

Test system: mongolian gerbils
Assay: gerbil social interaction model (time spent in active social interactions)
Format: in vivo
Details: 0.03 mg/kg i.p. (as free base), one hour after administration
Description: Paroxetine hydrochloride hemihydrate (0.3 mg/kg p.o of the paroxetine measured as the free base), 2-methoxy-5-(5-trifluoromethyl-tetrazol-1-yl-benzyl)]-(2S-phenyl-piperidin-3S-yl)-amine dihydrochloride (hereinafter compound A) (0.03 mg/kg i.p of the compound A measured as the free base) and a combination of paroxetine (0.3 mg/kg p.o. of the paroxetine measured as the free base) and compound A (0.03 mg/kg i.p. of the compound A measured as the free base) were administered independently in mongolian gerbils to assess the effect on time spent in active social interactions.
The results obtained one hour after administration, expressed as a percentage variation of the time spent in active social interactions by each animal in respect to the value obtained by treatment of control animals, are summarised in table 1.

## COc1ccc(-n2nnnc2C(F)(F)F)cc1CN[C@H]1CCCN[C@H]1c1ccccc1.Cl.Cl [Compound A]
  % Variation of the time spent in active social interactions in respect to control animals: +19.9%
